From patent US20100324059A1, “PHARMACEUTICAL COMPOSITIONS USEFUL FOR TREATING HCV” (Gilead Sciences, Inc., priority 2009, published 2010)

Test system: HCV genotype 1b replicon cells (Huh-luc)
Assay: Antiviral combination study of Compound 1 and Compound 2 in the HCV 1b replicon system (luciferase readout, MacSynergy II analysis)
Type: cell-based
Description: HCV genotype 1b replicon cells (Huh-luc) were obtained from Reblikon (Mainz, Germany). The replicon in these cells is designated I389luc-ubi-neo/NS3-3′/ET and encodes a selectable resistance marker (neomycin phosphotransferase) as well as the firefly luciferase reporter gene. Huh-luc cells were maintained in Dulbecco's Modified Eagle's Medium (DMEM; GIBCO, Carlsbad, Calif.) supplemented with 10% fetal bovine serum (FBS; Hyclone, Logan, Utah) and 0.5 mg/mL of G-418 (GIBCO). Cells were passaged twice a week and maintained at subconfluent levels.
Replicon cells were seeded in 96-well plates at a density of 5×10^3 cells per well in 100 μL of DMEM culture medium, excluding G-418. Compounds 1 and 2 were serially diluted 1:3 in 100% DMSO (Sigma). These serial dilutions were added to the cells at a 1:200 dilution to achieve a final concentration of 0.5% DMSO in a total volume of 200 μL. Plates were incubated at 37° C. for 3 days, after which culture media were removed and cells were lysed and assayed for luciferase activity using a commercial luciferase assay (Promega, Madison, Wis.). HCV replication levels in drug-treated samples were expressed as a percentage of those in untreated controls (defined as 100%), and data were fit to the logistic dose response equation y=a/(1+(x/b)c) using XLFit4 software (IDBS, Emeryville, Calif.). EC50 values were calculated from the resulting equations as described previously (Delaney, W. E., et al., Antimicrobial Agents Chemotherapy, 45(6):1705-1713 (2001)).
Replicon cells were seeded in 96-well plates at a density of 5×10^3 cells per well in 100 μL of culture medium. Compounds 1 and 2 were serially diluted in 100% DMSO as described above and added in a matrix format to 96-well plates, achieving a defined set of different drug concentrations and ratios in a final volume of 200 μL and a final DMSO concentration of 0.5%. For each individual drug, the EC50 value was selected as the midpoint for the concentration range tested. Cells were incubated for three days and analyzed for luciferase expression as indicated above. For the combination study, two independent experiments were performed in triplicate.
The calculated volumes of surface deviations are expressed in nM^2%. Per Prichard and Shipman, combination effects are defined as: • Highly synergistic if volumes >100 nM^2. • Moderately synergistic if volumes are >50 and ≦100 nM^2. • Additive if volumes are >−50 nM^2 and ≦50 nM^2. • Moderately antagonistic if volumes are >−100 nM^2 and ≦−50 nM^2. • Antagonistic if volumes are ≦−100 nM^2.

[1] = drug used in combination with Compound 1, 3 days, mean ± standard deviation of two or three independent experiments in triplicate

Structure (SMILES)	Antagonism Volume [1]	Synergy Volume [1]	interaction (drug used in combination with Compound 1, classification per Prichard and Shipman)	interaction (Compound 1 with Compound 2)
CCC[C@H](NC(=O)[C@@H]1[C@H]2CCC[C@H]2CN1C(=O)[C@@H](NC(=O)[C@@H](NC(=O)c1cnccn1)C1CCCCC1)C(C)(C)C)C(=O)C(=O)NC1CC1 [Compound 2, (1S,3aR,6aS)—N-[1(S)-[2-(Cyclopropylamino)oxalyl]butyl]-2-[N-(pyrazin-2-ylcarbonyl)-L-cyclohexylglycyl-3-methyl-L-valyl]perhydrocyclopenta[c]pyrrole-1-carboxamide]	0 ± 0 nM^2	79.5 ± 10.5 nM^2	Moderate synergy	
Fc1ccccc1-c1nc2ccn(Cc3ccc(-c4ccc(C(F)(F)F)cc4C(F)(F)F)nn3)cc-2n1 [Compound 1, 5-({6-[2,4-bis(trifluoromethyl)phenyl]pyridazin-3-yl}methyl)-2-(2-fluorophenyl)-5H-imidazo[4,5-c]pyridine]				moderate synergistic interaction
